Ten compounds from PubChem BioAssay (NCI) can be followed below.

Assay in all cases: NCI-60 cell line screen, 48 h
Assay [1] deals with T-47D breast.
The test system of assay [2] is SF-539 CNS.
Assay [3] has as its system OVCAR-8 ovarian.
Assay [4] concerns TK-10 renal.
For assay [5], the system named is ACHN renal.
The subject of assay [6] is NCI-H226 lung.
The subject of assay [7] is UO-31 renal.
Assay [8] concerns BT-549 breast.
In assay [9] the test system is SK-MEL-28 melanoma.
Assay [10] deals with CCRF-CEM leukemia.

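Assay format: 96-well plates, 48-hour exposure. The concentration for 50% growth inhibition is given as GI50. TGI marks complete inhibition of growth.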 Some results are limits rather than exact numbers.

Turning to `COc1ccccc1NC(=O)C(=O)C(C#N)CC(C)(C)C=O` (stereo unspecified), the TGI in assay [1], in assay [2], in assay [3], in assay [4], in assay [5] and in assay [6] was over 100 µM throughout. Moreover, the TGI in [7], in [8] and in assay [9] was over 100 µM throughout.

With `COc1ccc2c(C(=O)NCCCCCC(=O)O)cc3cc4c(cc3c2c1)OCO4`, the GI50 is 80 µM in assay [1]; over 100 µM in [2]; over 100 µM in assay [3]; over 100 µM in [4]; over 100 µM in assay [5]; 83.5 µM in assay [6]. The GI50 is 75.5 µM in [8], over 100 µM in [10] and over 100 µM in [9]. Also, the TGI in assay [1], in assay [2], in assay [3], in assay [4], in assay [5] and in [6] was over 100 µM in each case. Besides, the TGI in assay [8], in [10] and in [9] was over 100 µM throughout.

Turning to `Cc1cc(=O)[nH]c2c1C(=O)C(=O)C=C2`, the GI50 in [1] is 58.6 µM; in [2], 28.2 µM; in assay [3] it was 32.7 µM; in assay [4], 64.1 µM; in assay [5], 31.7 µM; in assay [6], 28.6 µM. For the same compound, the values for the GI50 in [7], in [8] and in assay [9] were 77.3 µM, 57.8 µM and over 100 µM, respectively. In addition, the TGI in [1] was over 100 µM; in assay [2], 47.7 µM; in [3] it was 73.9 µM; in assay [4], over 100 µM; in [5], over 100 µM; in assay [6], 73 µM. Moreover, the TGI in assay [7], in assay [8] and in assay [9] was over 100 µM throughout.

Take `N=C(N)c1ccc(-c2ccc(-c3ccccc3)o2)o1`: the GI50 was 1.95 µM in [2]; 4 µM in assay [3]; 3.32 µM in assay [4]; 2.56 µM in assay [5]; 5.7 µM in assay [6]; 1.54 µM in assay [7]. Moreover, the GI50 in [8] is 4.12 µM; in assay [10] it was 3.58 µM; in assay [9] it was 1.9 µM. The TGI was determined as 4.43 µM in assay [2]; 16.9 µM in assay [3]; 11.4 µM in assay [4]; 6.73 µM in [5]; 24.2 µM in assay [6]; 3.13 µM in [7]. In addition, the TGI in assay [8] is 16 µM; in assay [10] it was 12.4 µM; in assay [9], 4.41 µM.

On to `COc1ccc(/C=C/c2cnnc3ccccc23)cc1OC`, for which the TGI in assay [1], in [2], in assay [3], in [4], in [5] and in [6] was over 10 µM each time. The TGI in assay [8], in [10] and in [9] was over 10 µM throughout.

In the case of `COc1cc(-c2cc(C(=O)N3CCN(C(=O)c4ccccc4NCc4cccs4)CC3)nc3cc(-c4ccccc4)nn23)cc(OC)c1OC`, the GI50 in assay [1] is 8.38 µM; in assay [2], 9.85 µM; in assay [3] it was 30.3 µM; in assay [4], 20.6 µM; in assay [5], 4.93 µM; in assay [6], 6.39 µM. Also, the values for the GI50 in assay [7], in assay [8] and in assay [9] were 6.99 µM, 6.26 µM and 9.62 µM, respectively. The TGI in assay [1], in assay [2], in assay [3], in [4], in assay [5] and in assay [6] was over 100 µM throughout. Besides, the TGI in assay [7], in [8] and in assay [9] was over 100 µM each time.

In the case of `COc1ccc(S(=O)(=O)Nc2c(/C=C\c3cc(OC)c(OC)c(OC)c3)ccc(OC)c2O)cc1OC`, the GI50 in [1] was over 86.9 µM; in assay [2] it was 0.0856 µM; in assay [3], 0.416 µM; in assay [5], 0.526 µM; in assay [7], 0.864 µM; in [8], 0.256 µM. Moreover, the figures for the GI50 in [10] and in assay [9] were 0.125 µM and 1.74 µM, respectively. Moreover, the TGI in [1] is over 100 µM; in assay [2] it was 0.457 µM; in assay [3], over 100 µM; in assay [4], over 100 µM; in [5] it was over 100 µM; in assay [7] it was over 100 µM. Moreover, the TGI in assay [10] and in assay [9] was over 100 µM in each case.

With `c1ccc2c(c1)-c1nc3ccccc3cc1C2N1CCOCC1` (stereo unspecified), the TGI in assay [1], in assay [3], in [4], in assay [5], in assay [6] and in [8] was over 100 µM each time. Further, the TGI in assay [10] and in assay [9] was over 100 µM in each case.

As for `CC(NC(=O)C1(N)CCCC1)C(=O)O` (stereo unspecified), the TGI in [1], in assay [3], in assay [4], in assay [5], in [6] and in [7] was over 100 µM in each case. Also, the TGI in [8], in assay [10] and in [9] was over 100 µM throughout.

Turning to `O=c1c(-c2nc3ccccc3[nH]2)cc2ccccc2n1Cc1cn(Cc2ccc(F)cc2)nn1`, the GI50 in [1] was 0.206 µM; in assay [2], 0.137 µM; in assay [3] it was 0.139 µM; in assay [4] it was 0.793 µM; in assay [5] it was 0.492 µM; in [6], 0.572 µM. Also, the GI50 in [7] is 0.327 µM; in assay [8] it was 0.164 µM; in assay [10] it was 0.135 µM. Further, the TGI in assay [1] was over 100 µM; in assay [2] it was 0.636 µM; in [3], over 100 µM; in [4], 15.8 µM; in assay [5], over 40.5 µM; in assay [6] it was over 100 µM. Besides, the TGI is over 100 µM in assay [7], over 40.5 µM in assay [8] and over 100 µM in assay [10].
